Laboratory results published in US20240254087A1, “SELECTIVE, PARTIAL, AND ARRESTIN-BIASED 5-HT2A AGONISTS WITH UTILITY IN VARIOUS DISORDERS” (Saint Joseph's University, priority 2021, published 2024).

How the values were obtained:
mice = assay: PCP-induced locomotor hyperactivity; type: in vivo, mouse
Procedure: (A). DOI, a hallucinogen and 5-HT2A agonist, was administered IP 10 min after SC administration of vehicle or test drug. A and then HTR activity was assessed for 30 minutes. *p<0.001, significant difference vs. vehicle (B). Vehicle or the NMDA receptor antagonist PCP (5 mg/kg) was injected IP 10 min after SC administration of vehicle or 25N-NB1-Nap (16), and then the mice were placed in the test chambers 10 min later for a 60-min assessment of locomotor activity. (C). […] Mice were treated with vehicle or M100907 (0.03 mg/kg SC) 10 min prior to vehicle or PCP (5 mg/kg IP): animals were placed in the test chambers 10 min after treatment with PCP. Animals were tested for 60 min. *p<0.01 vs. vehicle: ^#p<0.01 vs. PCP alone.
Male C57BL/6J mice (6-8 weeks old) from Jackson Labs (Bar Harbor, ME, USA) were used for the behavioral experiments. The mice were housed on a reversed light-dark cycle (lights on at 1900 h, off at 0700 h) in an AAAC-approved vivarium at the University of California San Diego. Mice were housed up to four per cage in a climate-controlled room and with food and water provided ad libitum except during behavioral testing. Testing was performed between 1000 and 1800 h (during the dark phase of the light-dark cycle). The studies were conducted in accordance with National Institutes Health (NIH) guidelines and were approved by the University of California San Diego Institutional Animal Care and Use Committee.
Edelfosine, DOI, R—(−)-DOI, and PCP were injected IP (5 mL/kg): 25N—NB and its derivatives were injected SC (5 mL/kg or 10 mL/kg): YM-254,890 was injected into the lateral ventricle (2 μL) over 1 min.
The mouse behavioral pattern monitor (BPM) was used to assess locomotor activity. Each mouse BPM chamber (San Diego Instruments, San Diego, CA, USA) is a transparent Plexiglas box with an opaque 30×60 cm floor, enclosed in a ventilated isolation box. The position of the mouse in x.y coordinates is recorded by a grid of 12×24 infrared photobeams located 1 cm above the floor. A second row of 16 photobeams (parallel to the long axis of the chamber, located 2.5 cm above the floor) is used to detect rearing behavior. Holepoking behavior is detected by 11 1.4-cm holes that are situated in the walls (3 holes in each long wall, 2 holes in each short wall) and the floor ([…]); each hole is equipped with an infrared photobeam. The status of each photobeam is sampled every 55 ms and recorded for offline analysis. Locomotor activity was quantified as distance traveled, which was analyzed in 20-min blocks using a three-way ANOVA, with pretreatment and treatment as between subject variables and time as a within-subject variable. Tukey's studentized range method was used for post hoc comparisons.

male C57BL/6J mice = assay: Tolerance: DOI-induced HTR after 5 days repeated treatment; type: in vivo, mouse; conditions: 5 days SC: 25N-N1-Nap 20, DOI 10, pimavanserin 1 mg/kg/day
Procedure: The mice were allowed to recover from the magnet implantation surgeries for at least 1 week prior to behavioral testing. HTR experiments were conducted in a well-lit room, and the mice were allowed to habituate to the room for at least 1 h prior to testing. Head twitches was assessed in a 12-cm diameter glass cylinder surrounded by a magnetometer coil. Coil voltage was low-pass filtered (2 kHz), amplified, and digitized (20-kHz sampling rate) using a Powerlab/8SP with LabChart v 7.3.2 (ADInstruments, Colorado Springs, CO, USA). […] HTR counts were analyzed using one-way ANOVAs. Dunnett's test was used for post hoc comparisons.

SMILES: COc1cc([N+](=O)[O-])c(OC)cc1CCNCc1cccc2ccccc12 [25N-N-1-Nap (16), [2-(2,5-dimethoxy-4-nitrophenyl)ethyl][(naphthalen-1-yl)methyl]amine]
- Effect on baseline locomotor activity (mice; 3 mg/kg SC): had no effect
- Effect on PCP-induced locomotor hyperactivity (mice; PCP 5 mg/kg IP, 25N-N1-Nap 3 mg/kg SC, M100907 0.03 mg/kg SC): antagonized
- Ability of DOI (1 mg/kg IP) to induce the HTR after repeated daily treatment (male C57BL/6J mice): reduced significantly
